The test system of this experiment is humans. The experiment is described as follows: Oral administration of the medical herb composition to human volunteers with hair shedding. It is filed as in vivo. The following applies: Example 14: person. The source says:
The administered dose is based on body weight. For dogs and cats, the dose was 1-1.5 g/5 kg/day. […] because dogs and cats have higher metabolism rate than humans. […] The forehead hairline moved forward after one month, and generally the hair became thick. […] The efficacy of the composition is clearly identified by comparing the photo taken at the 37th day after the first administration of the composition (FIG. 8(b)) to that taken at 5th day (FIG. 8(a)). […] The test was performed on a volunteer, a person ([…]). […] They were diagnosed to suffer from Male Pattern Baldness. […] The efficacy of the composition is clearly identified by comparing the photo taken after the administration of the composition for 1 month (FIG. 9(b)) to that taken before the administration of the composition (FIG. 9(a)). […] In addition, after continuous administration of the composition for 1 month, their eyesight was 150 degree less than that before the administration of the composition.

The structures appear in SMILES notation.

As to `CC(C)(C)NC(=O)[C@H]1CC[C@H]2[C@@H]3CC[C@H]4NC(=O)C=C[C@]4(C)[C@H]3CC[C@]12C` [Finasteride], the “effect on Male Pattern Baldness (earlier treatment of the subject)” value was “the effect was poor”.
